From patent US20180345047A1, “METHOD OF PROMOTING HAIR GROWTH” (Yeda Research and Development Co. Ltd., priority 2015, published 2018) come the findings set out here.

In experiment [1] the test system is senescent epidermal cells. In words: Elimination of senescent cells in the skin epidermis of p14ARF-expressing mice (SA-β-Gal, p14ARF, cleaved caspase-3 stains). It counts as in vivo, K5-rtTA/tet-p14 mice. The note with it: 75 mg/kg intraperitoneally. As to the method:
(§1) Mouse experiments: K5-rtTA/tet-p14, described in (Toakrsly-Amiel et al.) were held on a mixed C57B1/129sv background. Mice received doxycycline (2 mg/ml) in the drinking water at 3 weeks of age for activation of the p14ARF transgene. Sibling tet-p14 single transgene control mice received doxycycline for the same period. After four weeks of transgene activation, ABT-737 (75 mg/kg in 30% propylene glycol, 5% Tween 80, 3.3% dextrose in water pH 4-5) or vehicle was injected into p14ARF-expressing mice intraperitoneally for 2 or 4 consecutive days. Mice were then shaved, sacrificed and back skins were paraffin embedded for immunohistology or frozen in OCT solution for cryosectioning and SA-β-gal stains.
Immunohistology: Immunohistology was performed according to standard procedures on 5 μm paraffin sections, using Peroxidase Substrate kits (Vector) or fluorescently labeled secondary antibodies (Jackson). Antibodies used: p14ARF (Abcam), CC3 (Cell Signaling), Ki67 (Labvision) and K15 (Santa Cruz). […] Positive cells were scored from >10 microscopic fields in each sample either by direct microscopic observation (SA-β-gal, p14) or on collected images (all other stains).
The present inventors set out to test whether the survival signals provided by Bcl-2 family members are necessary for the survival and retention of senescent cells in tissues. […] Concomitantly, the percentage of epidermal cells in which the transgenic p14^ARF protein could be detected was reduced (FIGS. 1D-E), indicating preferred elimination of transgene-expressing cells. Increased levels of apoptosis were detected in the epidermis after 2 days of ABT-737 treatment (FIGS. 1F-G), consistent with increased apoptosis as the mechanism of senescent cell elimination. […]

The test system of experiment [2] is hair-follicle stem cells in the bulge. In words: Hair-follicle bulge stem cell proliferation and number in p14ARF-expressing mice (Ki67/K15 stain, CD34/CD49f FACS). It counts as in vivo, K5-rtTA/tet-p14 mice. The note with it: vs vehicle. The procedure: as §1
Immunohistology: Immunohistology was performed according to standard procedures on 5 μm paraffin sections, using Peroxidase Substrate kits (Vector) or fluorescently labeled secondary antibodies (Jackson). Antibodies used: p14ARF (Abcam), CC3 (Cell Signaling), Ki67 (Labvision) and K15 (Santa Cruz). For Senescence-associated β-Galactosidase (SA-β-gal) stains, 10-12 μm cryosections of OCT-embedded mouse skins were fixed in 0.5% glutaraldehyde for 15 minutes, stained over night at 37° C. with 40 mM phosphate buffer pH=6 with 5 mM K4Fe(CN)6, 5 mM K3Fe(CN)6, 150 mM NaCl, 2 mM MgCl2 and 1 mg/ml X-gal, washed in PBS, fixed in 95% ethanol for 15 minutes, counterstained with nuclear fast red, dehydrated and mounted. Bright field images were collected using an Olympus CX41 and DS-Fi1 camera and processed using NIS Elements software (Nikon). Fluorescent images were taken using an Olympus FV1000 confocal microscope. Positive cells were scored from >10 microscopic fields in each sample either by direct microscopic observation (SA-β-gal, p14) or on collected images (all other stains).
Upon p14^ARF activation in mice at 3 weeks of age nearly all hair follicles are arrested in the resting (telogen) state, and only rare stem cells in the bulge express the proliferation marker Ki67^36 (FIGS. 5H-I). […] This effect was also evident three days after treatment was stopped (FIGS. 2A-B). […]

`CN(C)CC[C@H](CSc1ccccc1)Nc1ccc(S(=O)(=O)NC(=O)c2ccc(N3CCN(Cc4ccccc4-c4ccc(Cl)cc4)CC3)cc2)cc1[N+](=O)[O-]` [ABT-737]: the “number of senescent cells in the epidermis, determined by SA-β-Gal staining” value in experiment [1] (4 consecutive days, after 4 weeks p14ARF activation, relative to vehicle-treated mice) is given as “dramatically reduced”. Also, the “percentage of epidermal cells in which the transgenic p14ARF protein could be detected” value in experiment [1] (2 day treatment, vs vehicle) is on record as “reduced”. Moreover, the “levels of apoptosis in the epidermis (cleaved caspase-3)” value in experiment [1] (after 2 days of treatment, vs vehicle) is given as “Increased”. For the same molecule, the “number of CD34+/CD49f high bulge stem cells” value in experiment [2] (FACS of epidermal cells after 2 days of treatment) was “increased”. For the same molecule, the “increase in proliferating (Ki67+) hair-follicle stem cells in the bulge after end of treatment” value in experiment [2] (treated 2 days, three days after treatment was stopped) is reported as “also evident”. Further, the “numbers of proliferating (Ki67+) hair-follicle stem cells in the bulge” value in experiment [2] (treatment after 2-4 weeks of p14ARF induction, 75 mg/kg intraperitoneally) is “increase”.
